PMC4140855, “Production of an Attenuated Phenol-Soluble Modulin Variant Unique to the MRSA Clonal Complex 30 Increases Severity of Bloodstream Infection” (PLoS Pathogens, 2014)

Legend:
FPR3 = target: T1, FPR3 (Homo sapiens, UniProt P25089); assay: Ca2+ flux in HL60 cells stably transfected with FPR3; format: cell-based; conditions: one site-binding model from Ca2+ flux, synthetic peptides, three biological and two technical replicates, error = standard deviation
T1 construct: expressed in transfected cells; host or cells: HL60 cells, stably transfected
T1 sequence (P25089 1-353): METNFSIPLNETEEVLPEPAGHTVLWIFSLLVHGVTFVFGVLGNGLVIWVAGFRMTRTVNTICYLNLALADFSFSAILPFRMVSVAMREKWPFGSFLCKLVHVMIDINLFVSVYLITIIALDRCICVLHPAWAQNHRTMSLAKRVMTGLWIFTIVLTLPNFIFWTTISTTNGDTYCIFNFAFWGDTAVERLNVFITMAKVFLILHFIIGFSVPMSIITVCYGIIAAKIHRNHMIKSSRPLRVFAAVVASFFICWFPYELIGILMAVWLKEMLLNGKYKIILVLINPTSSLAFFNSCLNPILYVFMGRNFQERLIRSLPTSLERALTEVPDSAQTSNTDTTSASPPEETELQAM
Experimental: Next, we analyzed Ca^2+ flux as a general measure to test for neutrophil activation, as used in previous studies. HL60 cells stably transfected with different FPR receptor genes were used to determine which FPR receptors are differentially activated by PSMα3 versus PSMα3N22Y (Fig. 4A). […] At a peptide concentration of 100 nM, we observed a difference of ∼factor 2 in chemotactic activity comparing the two peptides when FPR1 recognition was inhibited by CHIPS, likely attributable to FPR2-mediated recognition. […]
(A) Differential activation of FPRs by PSMα3 versus PSMα3N22Y was measured using synthetic peptides and Ca^2+ flux observed in HL60 cells stably transfected with the corresponding FPR genes as readout, using three biological and two technical replicates. The calculated Kd values are shown on the right. […]
Human neutrophils were isolated from venous blood of healthy donors as described, [39]. Neutrophil chemotaxis and Ca^2+ flux were determined as previously described, [24]. […] Chemotaxis of neutrophils was determined using a transwell system (Costar) with analysis of neutrophil migration using fluorescence labeling. Calcium fluxes were monitored as a surrogate marker for chemotaxis since it can be measured more robustly and accurately than chemotaxis. […] Measurements of 2,000 events were performed and Ca^2+ flux was expressed as relative fluorescence corrected for buffer controls. […]

abscess or lesion = assay: Mouse model of skin infection (abscess sizes); format: in vivo; conditions: Crl∶SKH1-hrBR mice, subcutaneous, 14 d; expressed in strains MRSA252 and 22030
Experimental: The mouse skin infection model was performed as described. Briefly, six to eight week-old female Crl∶SKH1-hrBR hairless mice (Charles River Laboratories) were injected subcutaneously with ∼4×10^7 CFU of S. aureus strains 252 or 252*, or ∼5×10^6 CFU of S. aureus strains 22030 or 22030* in 50 µl of PBS in the left flank of the mouse. The length (L) and width (W) of the abscess or lesion caused by the bacterial infection was measured with an electronic caliper daily for 14 d post infection and calculated using the formula L×W. Typically, strain MRSA252 caused closed abscesses and strain 22030 open lesions. All animals were euthanized after completion of the entire procedure. All mouse experiments were performed blinded at the animal care facility of the NIAID, Building 33, in compliance with the guidelines of the NIAID/NIH Institutional Animal Care and Use Committee.
Supplementary file ppat.1004298.s002.tif: Figure S2 Mouse model of skin infection. […] The length (L) and width (W) of the abscess or lesion caused by the bacterial infection was measured with an electronic caliper daily for 14 d post infection and calculated using the formula L×W. Typically, strain MRSA 252 caused closed abscesses and strain 22030 open lesions. […]

human neutrophils = conditions: ref [11]; cited from earlier work
Excerpt: PSMs are short, amphipathic, α-helical peptides with a major impact on S. aureus virulence, [11]. The PSMα peptides of S. aureus in particular cause lysis of a variety of cell types, including neutrophils (or polymorphonuclear leukocytes, PMNs), monocytes, erythrocytes, and osteoblasts [11]–[13]. The rather low target specificity of PSM-mediated cytolysis is due to the fact that lysis is believed to be receptor-independent, [15], which is reflected by the capacity of PSMs to lyse artificial vesicles. In addition, PSMs have pro-inflammatory capacities that are recep ...

Structure (SMILES) | Kd (FPR3) [µM] | Virulence in skin infections as measured by abscess sizes (abscess or lesion) | Capacity to elicit chemotaxis by neutrophils, relative to other PSMs (human neutrophils) | Pro-inflammatory and cytolytic potency relative to other PSMs of S. aureus (human neutrophils)
CSCC[C@H](NC=O)C(=O)N[C@@H](CCC(=O)O)C(=O)N[C@@H](Cc1ccccc1)C(=O)N[C@H](C(=O)N[C@@H](C)C(=O)N[C@@H](CCCCN)C(=O)N[C@@H](CC(C)C)C(=O)N[C@@H](Cc1ccccc1)C(=O)N[C@@H](CCCCN)C(=O)N[C@@H](Cc1ccccc1)C(=O)N[C@@H](Cc1ccccc1)C(=O)N[C@@H](CCCCN)C(=O)N[C@@H](CC(=O)O)C(=O)N[C@@H](CC(C)C)C(=O)N[C@@H](CC(C)C)C(=O)NCC(=O)N[C@@H](CCCCN)C(=O)N[C@@H](Cc1ccccc1)C(=O)N[C@@H](CC(C)C)C(=O)NCC(=O)N[C@@H](CC(N)=O)C(=O)N[C@@H](Cc1ccc(O)cc1)C(=O)O)C(C)C [PSMα3N22Y] | 0.953 ± 0.254 | did not cause increased virulence in skin infections | – | –
CSCC[C@H](NC=O)C(=O)N[C@@H](CCC(=O)O)C(=O)N[C@@H](Cc1ccccc1)C(=O)N[C@H](C(=O)N[C@@H](C)C(=O)N[C@@H](CCCCN)C(=O)N[C@@H](CC(C)C)C(=O)N[C@@H](Cc1ccccc1)C(=O)N[C@@H](CCCCN)C(=O)N[C@@H](Cc1ccccc1)C(=O)N[C@@H](Cc1ccccc1)C(=O)N[C@@H](CCCCN)C(=O)N[C@@H](CC(=O)O)C(=O)N[C@@H](CC(C)C)C(=O)N[C@@H](CC(C)C)C(=O)NCC(=O)N[C@@H](CCCCN)C(=O)N[C@@H](Cc1ccccc1)C(=O)N[C@@H](CC(C)C)C(=O)NCC(=O)N[C@@H](CC(N)=O)C(=O)N[C@@H](CC(N)=O)C(=O)O)C(C)C [PSMα3] | – | – | by far exceeds that of any other PSM of S. aureus | by far most pro-inflammatory and cytolytic PSM of S. aureus
